Laboratory results: article PMC10794345, “Analysis of vascular disruption in zebrafish embryos as an endpoint to predict developmental toxicity” (Archives of Toxicology, 2023)
Entries after “also recorded” stand apart in the source; their conditions may differ. Read-outs that look alike come from different tables or passages of the source.

Tests used:
[1] = tested on: zebrafish embryos (wild-type strain OBI/WIK); experiment: ISV inhibition (angiogenesis) by video subtraction in wildtype zebrafish embryos; assay type: in vivo, zebrafish (D. rerio); settings: for IC50: Danio rerio, ± 95% confidence intervals, read-out: IC50 of ISV inhibition
Procedure: A wild-type adult zebrafish strain (D. rerio, strain OBI/WIK, generation F3), originating from an in-house cross of zebrafish strains UFZ-OBI and WIK, was used for all experiments. The Tg(kdr:EGFP) strain was kindly provided by the University of Jena. Fish were fed twice daily with dry food (SDS-400, Special Diets Services, Essex England) and once daily with Artemia sp. […] Spawning trays were inserted 4–6 h before the end of the light cycle. The following day, spawning was initiated by the onset of light and eggs were collected within 1 h. Exposure in all experiment was ceased at 96 hpf.
(§1) Exposure was conducted in rectangular 96-well microplates (Clear Polystyrene, flat bottom, Uniplate, Whatman, GE Healthcare) covered by a lid with a test volume of 400 µL of exposure media. For each replicate one embryo per well and 16 wells per concentration were assessed. Experiments were performed with at least two replicates on independent days and breeding.
To determine the number of ISVs in the trunk region, high-resolution images of 96 hpf-old zebrafish embryos were recorded using a Leica DM6B-Z microscope (Leica, Wetzlar, Germany) attached to the VAST imaging system, and a camera (Leica DFC9000 sCMOS, objective: HC APO L U-V-I 20x/0.50 WATER UV). A series of 20 images with a frame rate of 20 images per second and a 2 × 2 pixel binning was recorded in autofocus mode for each embryo.
A series of MATLAB scripts (Supplement File ‘Workflow 3.m’ and ‘Workflow 4.m’) was used to convert the image series into a video and to visualize the blood vessel by applying a video subtraction approach (Figure SI1). Briefly, each video frame was subtracted from the average image of the whole image sequence and converted to a binary image by applying a Gaussian blur (σ = 5) and a threshold of 0.025 to obtain optimal contrast in binary images. Subsequently, the sum of all binary images was calculated. Due to movement of the blood cells the subtraction approach removed all parts from the image which were not moving resulting in an image of the blood vessels. This binary image of the blood vessel network in the zebrafish embryo tail was then processed with the FishInspector annotation software (version 1.70). […] The number of ISVs was obtained by application of a KNIME workflow to FishInspector annotation files. Subsequently concentration–response analysis was conducted using a KNIME workflow. The coefficient of variation (CV) of controls was calculated for both the subtraction and the fluorescence-based method by dividing the standard deviation of individual embryos with the control mean: CVControl=SD/Mean.
The assessment of lethality and morphological features was based on the percentage of embryos affected. Therefore, morphological endpoints were dichotomized, i.e. feature metrics were converted to the percentage of embryos deviating from controls. An embryo was considered to deviate when it was outside 1.5-fold of the standard deviation range of the mean of the control group. The control mean was determined by pooling control embryos across all experiments (n = 160) (available at git.ufz.de). For heart rate and angiogenesis (number of ISVs) the analysis was based on normalized values, i.e. for each experiment the values of the treatment were divided by the control value. The experiments were designed to calculate effect concentrations based on modelled curve fits. Different concentrations were used in at least two independent replicates, with means of each replicate based on the exposure of 16 different embryos per concentrations. Effect concentration were only modeled when three conditions were met. […] (2) The Akaike information criterion (AIC) for the log-logistic model was lower than the AIC for a linear model with slope 0 (lower p values for the letter would indicate that there is no trend in the data).

[2] = Lethality of zebrafish embryos at 96 hpf; assay type: in vivo, zebrafish (D. rerio); settings: OBI/WIK wild-type, zebrafish, in vivo, other: immersion of embryos in exposure media, 3–96 hpf exposure; ± 95% confidence intervals
Procedure: as §1, with “Fertilized and normally developed embryos were selected according to Kimmel et al. ([1995]) with a dissection microscope (Olympus SZx7-ILLT) at 1 hpf. Depending on experiment, exposure was started within 2–3 h post-fertilization (16–128 cell stages) or at 24 hpf. Exposure” for “Exposure”
(§2) Concentration–response curves were fitted for lethality, heart rate, morphological features as previously described (Teixidó et al. [2019], [2022]). The assessment of lethality and morphological features was based on the percentage of embryos affected. Therefore, morphological endpoints were dichotomized, i.e. feature metrics were converted to the percentage of embryos deviating from controls. An embryo was considered to deviate when it was outside 1.5-fold of the standard deviation range of the mean of the control group. The control mean was determined by pooling control embryos across all experiments (n = 160) (available at git.ufz.de). For heart rate and angiogenesis (number of ISVs) the analysis was based on normalized values, i.e. for each experiment the values of the treatment were divided by the control value. The experiments were designed to calculate effect concentrations based on modelled curve fits. Different concentrations were used in at least two independent replicates, with means of each replicate based on the exposure of 16 different embryos per concentrations. Effect concentration were only modeled when three conditions were met. (1) The Tukey trend test based on the R package "tukeytrend" (Schaarschmidt et al. [2022]) was deriving a maximum p-value of 0.05. (2) The Akaike information criterion (AIC) for the log-logistic model was lower than the AIC for a linear model with slope 0 (lower p values for the letter would indicate that there is no trend in the data). (3) We calculated effect concentrations only if at least 30% of embryos for that endpoint were affected in at least one exposure concentration of (for normalized data) a reduction or increase by 30% was observed.

[3] = tested on: zebrafish embryos (wild-type strain OBI/WIK); experiment: Lethality of zebrafish embryos at 96 hpf; assay type: in vivo, zebrafish (D. rerio); settings: embryos exposed from 24 hpf, compared to exposure from 3 hpf
Procedure: as §1, with “Fertilized and normally developed embryos were selected according to Kimmel et al. ([1995]) with a dissection microscope (Olympus SZx7-ILLT) at 1 hpf. Depending on experiment, exposure was started within 2–3 h post-fertilization (16–128 cell stages) or at 24 hpf. Exposure” for “Exposure”
as §2

[4] = tested on: early life stage zebrafish; settings: ref Tal et al. [2014]; read-out: EC50 for decreased ISV length; cited from earlier work
[5] = tested on: zebrafish embryos (wild-type strain OBI/WIK); experiment: Morphological features and heart rate by automated imaging (VAST/FishInspector) at 96 hpf; assay type: in vivo, zebrafish (D. rerio); settings: 96 hpf; listed as VPA
Procedure: Automated imaging of zebrafish developmental phenotypes was conducted with the VAST BioImager (Union Biometrica, Gees, Belgium (Pardo-Martin et al. [2010]; Pulak [2016])) equipped with a large particle sampler (LP sampler, Union Biometrica). Lateral and dorsoventral images were obtained at 10 µm resolution at 96 hpf. Prior to imaging, all embryos were anesthetized by adding 20 µl tricaine solution ([…] tricaine, TRIS 26 mM, pH 7.5 ± 0.1) to each well of the microplate. Images were processed with an amended version (1.70, available via https://codebase.helmholtz.cloud/ufz/tb3-cite/biotox/FishInspector) of the FishInspector imaging software (Teixidó et al. [2019]). The FishInspector software allows to automatically annotate morphological features including body contour, eye, lower mouth tip, pericard, otoliths, notochord, swimbladder, and yolk and to calculate diverse metrics such as feature length, size, curvature indices, or angle between feature-connecting lines. In contrast to the previously published version, FishInspector 1.70 detects morphological features based on a deep learning approach using the Matlab Neural Network Toolbox and Matlab Image Processing Toolbox (Mathworks, Natick, […]). In addition, metric calculation was included into the software, and meta information such as test compound, exposure window or test concentration was associated to each image using a microplate layout file. To facilitate training of the models, two additional programs were generated in Matlab including FishTrainer 0.9 (for training of semantic segmentation models of structural features) and FishClassificator 0.9 (for training of position classes to be used in automated flipping of images) available via same repository as FishInspector software. For image training, image size was adjusted to 450 × 300 pixel to reduce computing time. This resolution was sufficient to detect the selected features (data not shown). For training of the deep learning models, approximately 3000 previously annotated images (Teixidó et al. [2022]) were used. The automated annotations were corrected by the user in the event that they were not adequately detecting visible structures. User-bias was avoided by a blinded assessment of images.
FishInspector provided a JSON file corresponding to each image file containing the coordinates of all features and the applied smoothing factor. All images and videos used for this publication can be found at the BioImage Archive S-BIAD954 (https://www.ebi.ac.uk/biostudies/bioimages/studies/S-BIAD954). For each image, a csv file was generated containing calculated metrics. The software automatically provides a summary table containing metrics r of individual embryos. […] The analyzed file includes endpoint names based on the FishInspector software. […]

SMILES	IC50 ([1]; 3–96 hpf exposure) [nM]	IC50 ([1]; 24–96 hpf exposure) [nM]	LC50 [2] [nM]	Mortality (in words) [3]	EC50 [4] [nM]	Effect on ISV formation (in words) ([1]; tested concentration range up to 800 µM, negative control, listed as VPA)	Morphological malformations (in words) [5]
Clc1ccc(Nc2nnc(Cc3ccncc3)c3ccccc23)cc1 [PTK787]	90 ± 40	140 ± 30	680 ± 510	no	170		
CCCC(CCC)C(=O)O [Valproic acid]						No effect; also recorded: no inhibition of ISVs formation was observed	craniofacial malformations were observed; also recorded: changes in head and jaw structures
